Measurements: patent US9539321B2, “HMGB1-derived peptides enhance immune response to antigens” (The Regents of the University of California, priority 2010, dated 2017)
“Also recorded” adds a separate entry of the source. Like-named read-outs stand apart in the source and are kept apart here. Where a SMILES comes first, the peptide text is derived from it. The star is where a group is joined. Biotin = O=C1N[C@H]2[C@H](CS[C@H]2CCCCC(=O)*)N1

Experiments:
Immature human DCs [1] = assay: Stimulation of DCs, IL-6 by ELISA; type: cell-based; details: for effect of inhibitor pre-treatment on Hp91-induced IL-6 secretion: SB203580 5 or 20 μM, PD98059 20 μM, TPCK 20 μM, 48 h
J774 macrophages [2] = type: cell-based, mouse
Immature human DCs [3] = assay: Peptide binding/uptake by flow cytometry; details: for uptake by DCs: biotinylated peptide 200 μg ml^−1, 30 minutes, 37° C.
[4] = Adverse effects of tested doses in mice; type: in vivo
[5] = test system: antigen-specific IFN-γ secreting T cells; assay: IFN-γ ELISPOT of splenocytes from immunized mice; type: in vivo, C57BL/6 mice; details: for number of antigen-specific IFNγ-secreting T cells compared to PBS: equimolar peptide with SIINFEKL peptide
Description: Female C57BL/6 mice 8-12 weeks of age were used for most experiments. All mice were purchased from Charles River Laboratories (Boston, Mass., USA) and housed at the Moores UCSD Cancer Center animal facility. All animal studies were approved by the Institutional Animal Care and Use Committee of UCSD and were perfolined in accordance with the institutional guidelines. For most experiments, mice were immunized s.c. with 50 μg of SIINFEKL (OVA-I) peptide (SEQ ID NO: 45) and 50 μg of ISQAVHAAHAEINEAGR (OVA-II) peptide (SEQ ID NO: 46). The OVA peptide was co-administered with either Hp91 (30 to 500 μg) or PBS (negative control). For some experiments, a protein vaccine group was included, wherein 500 μg of Hp91 was co-administered with 100 μg of LPS-free OVA protein. As a positive control, mice were immunized s.c. with OVA peptide(s) or protein in Incomplete Freund's Adjuvant “IFA” (Sigma-Aldrich, St. Louis, Mo., USA). If not otherwise indicated, mice were immunized and boosted two weeks later and spleens and blood were collected 10-14 days after the final immunization.
Single cell suspensions of splenocytes were prepared by mechanical disruption and separation through a 70 μm nylon cell strainer (BD Biosciences, Franklin Lakes, N.J., USA). Red blood cells were lysed using ammonium chloride buffer (Roche Diagnostics, Indianapolis, Ind., USA) and the splenocytes were subsequently resuspended in complete medium (RPMI 1640 with 10% FBS, L-glutamine, penicillin, streptomycin, and HEPES). in some experiments, CD4+ and CD8+ cells were depleted from bulk splenocyte populations using anti-CD4 or anti-CD8α conjugated microbeads (Miltenyi-Biotec, Auburn, Calif., USA) according to the manufacturer's instructions.
Freshly isolated splenocytes were plated in duplicate to wells of a nitrocellulose bottom enzyme-linked immunospot (ELISPOT) plate (Millipore, Millerica, Mass., USA) that had been previously coated overnight with 5 μg ml^−1 monoclonal anti-mouse IFN-γ antibody (Mabtech, Stockholm, Sweden). Splenocytes were cultured overnight at 37° C. with 2.5 μg ml^−1 SIINFEKL (OVA-I) peptide, 2.5 μg ml^−1 ISQAVHAAHAEINEAGR (OVA-II) peptide, or left unstimulated (medium only). After 18 h, culture supernatants were collected for cytokine analysis and ELISPOT plates were developed using 1 μg ml^−1 biotinylated anti-mouse IFN-γ antibody (Mabtech), Streptavidin-HRP (Mabtech), and TMB Substrate (Mabtech). The plate was scanned and the spots were counted using an automated ELISpot Reader System (CTL ImmunoSpot, Shaker Heights, Ohio, USA).
Mice were immunized s.c. with 50 μg of SIINFEKL peptide. The SIINFEKL peptide was co-administered with either PBS, Hp91 (250 μg), or scrambled Hp91 (250 μg). Peptides were dissolved in PBS for all immunizations, Mice were boosted two weeks later and spleens and blood were collected one week after the final immunization. Single cell suspensions of splenocytes were prepared by mechanical disruption and separation through a […] nylon cell strainer (BD Biosciences). Red blood cells were lysed using ammonium chloride buffer (Roche Diagnostics, Indianapolis, Ind.) and the splenocytes were subsequently resuspended in RPMI 1640 medium (Invitrogen) supplemented with 10 mmol HEPES (GIBCO-BRL), penicillin (100 U/mL)—streptomycin (100 μg/mL)—glutamine (2 mM) (GIBCO-BRI.), arid 5% (vol/vol) fetal calf serum (Omega).
Freshly isolated splenocytes were plated in duplicate to wells of a nifrocellulose bottom enzymelinked immunospot (ELISPOT) plate (Millipore, NAillerica, Mass., USA) that had been previously coated overnight with 5 μg ml^−1 monoclonal anti-mouse IFN-γ antibody (Mabtech, Stockholm, Sweden). Splenocytes were cultured overnight at 37° C., with 2.5 μg ml^−1 SIINFEKL peptide, 5 μg ml^−1 concanavalin A positive control (Sigma), or left unstimulated (medium only). […]

[6] = test system: p-IRF3 in RAW 264.7 macrophages; assay: Immunoblotting for phospho-IRF3; type: cell-based, mouse; details: Dynasore 80 μM pre-treatment
J774 macrophages [7] = assay: Uptake of Cp488-labeled Hp91 by macrophages, flow cytometry; type: cell-based, mouse; details: Dynasore 80 μM, Cp488-labeled Hp91 200 μg ml^−1
splenocytes = assay: IL-2 / IL-4 secretion of splenocytes from immunized mice by ELISA; type: in vivo, C57BL/6 mice
Description: Splenocytes were cultured overnight with 2.5 μg ml^−1 OVA-I peptide, 2.5 μg ml^−1 OVA-II peptide, 5 μg ml^−1 concanavalin A positive control (Sigma), or left unstimulated (media only). After 18 h, cell culture supernatants were collected and analyzed for the presence of IL-2 and IL-4 by ELISA (eBioscience).
To measure cytokine release from immunized mice, splenocytes were cultured overnight with 2.5 μg ml^−1 SINFEKI: peptide, 5 μg ml^−1 concanavalin A positive control (Sigma), or left unstimulated (medium only). After 18 h, cell culture supernatants were collected and analyzed for the presence of IL-2 by ELISA. (eBioscience).
To measure cytokine release from immunized mice, splenocytes were cultured overnight with 2.5 μg ml^−1 SIINFEKL peptide, 5 μg ml^−1 concanavalin A positive control (Sigma), or left unstimulated (media only). After 18 h, cell culture supernatants were collected and analyzed for the presence of IL-2 by ELISA (eBioscience).

Circular dichroism = type: physicochemical; details: 75%/25% TFE/H2O, 200 μg ml^−1
Description: CD spectra of peptides, dissolved in 75%/25% Trifluoroethanol (TFE, Sigma)/H2O (vol/vol), were collected on an AVIV model 202 Circular Dichroism Spectrometer, under nitrogen, using a 1 mm pathlength quartz cuvette. These spectra were corrected by subtraction of a “solvent-only” spectrum and smoothed. The spectra are shown in mean residue ellipticity (θmrw). Peptides were analyzed at 200 μg ml^−1.

B16 melanoma cells = assay: Prophylactic B16 tumor challenge
Immature human DCs [8] = assay: Confocal microscopy of peptide binding/uptake; type: cell-based; details: even after 30 minutes at 37° C.
Description: Immature human DCs (10^5) were pre-cooled on ice and subsequently incubated for 30 minutes on ice in culture medium with biotinylated Hp91 or Hp121 to allow peptide binding. Cells were washed and then incubated for the indicated time at 37° C. Cells were cytospun (Shandon Cytospin 2 centrintge) onto glass slides, fixed, pernieabiiized with acetone, and stained with Streptavidin-Alexa 488 (Invitrogen) to visualize biotinylated peptides and Hoechst 33258 DNA stain (Invitrogen). Cells were imaged on a Zeiss LSM confocal microscope.

mouse BM-DCs = assay: Stimulation of mouse BM-DCs, IL-6 by ELISA; type: cell-based
Immature human DCs [9] = details: cited from earlier work
[10] = biotinylated, 90 μM, 30 minutes 37° C.

C[S+]([O-])c1ccc(-c2nc(-c3ccncc3)c(-c3ccc(F)cc3)[nH]2)cc1 (stereo not drawn) [SB203580]
effect of inhibitor pre-treatment on Hp91-induced IL-6 secretion (Immature human DCs [1]): significantly reduced | effect of inhibitor pre-treatment on Hp91-induced IL-6 secretion (J774 macrophages [2]): significantly lowered

[N-]=[N+]=[N-] [Sodium azide, sodium azide]
inhibition at 10000 µM (Immature human DCs [3]; Homo sapiens, read-out: inhibition of Hp91 uptake): ~40%

CN(C)CCCN1c2ccccc2Sc2ccc(Cl)cc21 [chlorpromazine]
effect of inhibitor pre-treatment on Hp91-induced IL-6 secretion (J774 macrophages [2]): no reduction | effect of inhibitor pre-treatment on uptake of biotinylated Hp91 (Immature human DCs [3]): significantly reduced

C/C1=C/C(=O)O[C@@H]2C[C@@H](CC[C@H](C)/C=C\CC1)O[C@@](O)([C@@H]1CSC(=O)N1)C2 [Latrunculin B]
effect of inhibitor pre-treatment on uptake of biotinylated Hp91 (Immature human DCs [3]): did not significantly reduce | uptake of Dextran FITC (Immature human DCs [3]): completely abrogating

CC(C)C[C@H](NC(=O)[C@H](Cc1ccccc1)NC(=O)[C@H](Cc1ccccc1)NC(=O)[C@H](C)NC(=O)[C@H](CO)NC(=O)[C@@H]1CCCN1C(=O)[C@@H]1CCCN1C(=O)[C@H](CCCNC(=N)N)NC(=O)[C@H](CCCCN)NC(=O)[C@@H]1CCCN1C(=O)[C@H](C)NC(=O)[C@H](CC(N)=O)NC(=O)[C@@H]1CCCN1C(=O)[C@H](CC(=O)O)NC(=O)CCCC[C@@H]1SC[C@@H]2NC(=O)N[C@@H]21)C(=O)N[C@@H](Cc1ccccc1)C(=O)N[C@@H](CS)C(=O)N[C@@H](CO)C(=O)N[C@@H](CCC(=O)O)C(=O)O [Hp91, DPNAPKRPPSAFFLFCSE] (Biotin-DPNAPKRPPSAFFLFCSE-OH)
adverse effects [4]: no adverse effects

ASLAPPFPNCFDPKSREF (scrambled Hp91 peptide)
antigen-specific immune response (IFN-γ ELISPOT, IL-2) ([5]; 250 μg with SIINFEKL peptide, compared to Hp91): failed to mount an antigen-specific immune response | uptake by DCs (Immature human DCs [3]): much lesser extent than Hp91; also recorded: not taken up

N-tosyl-L-phenylalanine chloromethyl ketone [TPCK]
effect of inhibitor pre-treatment on Hp91-induced IL-6 secretion (Immature human DCs [1]): significantly reduced | effect of inhibitor pre-treatment on Hp91-induced IL-6 secretion (J774 macrophages [2]): significantly lowered

O=C(N/N=C/c1ccc(O)c(O)c1)c1cc2ccccc2cc1O [Dynasore]
effect on Hp91-induced phosphorylation of IRF3 [6]: reduced the phosphorylation of IRF3 | effect of inhibitor pre-treatment on Hp91-induced IL-6 secretion (J774 macrophages [2]): significantly reduced | effect on uptake of Hp91 (J774 macrophages [7]): significantly inhibited uptake

RPPSAFFL (UC714 peptide)
IFNγ-secreting T cells relative to full-length Hp91 peptide ([5]; equimolar doses): 50% | number of antigen-specific IFNγ-secreting T cells compared to PBS [5]: moderate increases | endocytosis by DCs (Immature human DCs [3]; [10]): failed to be endocytosed

SAFFLFCSE [UC1018]
adjuvant strength in vivo relative to Hp91, by IFN-γ ELISPOT and IL-2 cytokine release ([5]; discussion statement): 3 fold | IFNγ ELISPOT immune response relative to Hp91 positive control ([5]; equimolar doses): 4 fold | number of antigen-specific IFNγ-secreting T cells compared to PBS [5]: significant increase | IL-2 level relative to Hp91 controls (splenocytes; equimolar doses): 4 fold | IL-2 (splenocytes; immunized with SIINFEKL peptide and peptide adjuvant): significantly enhanced | secondary structure from CD spectrum (Circular dichroism): alpha helix | tumor formation and tumor growth vs PBS group (B16 melanoma cells; 142 μg with apoptotic B16 cells, significant as early as 11 days post challenge): delay in tumor formation and slowing of tumor growth | mice tumor-free and alive (B16 melanoma cells; at 75 days post tumor challenge): 60% | uptake by DCs compared to Hp91 controls (Immature human DCs [3]; [10]): over 3 fold

APKRPPSA (UC411 peptide)
endocytosis by DCs (Immature human DCs [3]; [10]): failed to be endocytosed

N=C(N)NC(=O)c1nc(Cl)c(N)nc1N [amiloride]
effect of inhibitor pre-treatment on uptake of biotinylated Hp91 (Immature human DCs [3]; 30 minutes pre-treatment, PAO 2 μM, CP 100 μM, NY 20 μM, AM 2 mM): failed to significantly reduce

C[C@@H]1[C@H](O)[C@@H](C)/C=C/C=C/CC/C=C/C=C/C=C/C=C/C(O[C@H]2O[C@H](C)[C@@H](O)[C@H](N)[C@@H]2O)CC2O[C@](O)(CC(O)C(O)CCC(O)CC(O)CC(O)CC(=O)O[C@H]1C)CC(O)C2C(=O)O (stereo partly drawn) [nystatin]
effect of inhibitor pre-treatment on uptake of biotinylated Hp91 (Immature human DCs [3]): failed to significantly reduce

COc1cccc(-c2cc(=O)c3ccccc3o2)c1N [PD98059]
effect of inhibitor pre-treatment on Hp91-induced IL-6 secretion (Immature human DCs [1]): failed to significantly reduce

RPPSAFFLFCSE (UC718 peptide)
IL-6 / cytokine secretion from DCs (Immature human DCs [1]; short peptides, 48 hours): induces cytokine release from DCs

SIGDVAKKLGEMWNNTAA (Hp121 peptide)
number of INF-γ secreting cells ([5]; s.c. with OVA-I peptide, 250 μg peptide, freshly isolated and expanded splenocytes, vs PBS/OVA-I): No significant increase | detection within DCs (Immature human DCs [8]): not detected | activation of mouse BM-DCs in vitro (mouse BM-DCs): does not cause activation | activation of human DCs in vitro (Immature human DCs [9]): does not cause activation | uptake by DCs (Immature human DCs [3]): not taken up

DPNAPKRP (UC18 peptide)
secondary structure from CD spectrum (Circular dichroism): polyproline II helix | endocytosis by DCs (Immature human DCs [3]; [10]): failed to be endocytosed
